# Data from US11291651B2, “Glycopyrrolate salts” (Journey Medical Corporation, priority 2013, dated 2022).
# Tests used:
# [1] = exposed to standard atmospheric conditions
# From the text: In addition, the extremely low glass transition renders the amorphous form of glycopyrrolate challenging to formulate successfully.
# [2] = glass transition temperature by modulated DSC; format: physicochemical; conditions: amorphous solid
# Method: DSC was performed using a TA Instruments 2920 differential scanning calorimeter. Temperature calibration was performed using NIST-traceable indium metal. The sample was placed into an aluminum DSC pan, covered with a lid, and the weight was accurately recorded. A weighed aluminum pan configured as the sample pan was placed on the reference side of the cell. Modulated DSC data (see, e.g., FIG. 23) were obtained on a TA Instruments Q2000 differential scanning calorimeter equipped with a refrigerated cooling system (RCS). Temperature calibration was performed using NIST-traceable indium metal. The sample was placed into an aluminum DSC pan, and the weight was accurately recorded. The pan was covered with a lid perforated with a laser pinhole, and the lid was hermetically sealed. A weighed, crimped aluminum pan was placed on the reference side of the cell. Data were obtained using a modulation amplitude of ±1° C. and a 60 second period with an underlying heating rate of 2° C./minute from −50 to 220° C. The reported glass transition temperatures are obtained from the inflection point of the step change in the reversing heat flow versus temperature curve.
# [3] = molecular target: M3 muscarinic acetylcholine receptor (Homo sapiens, UniProt P20309); assay: binding affinity for the M3 muscarinic acetylcholine receptor in vitro; conditions: glycopyrronium delivered as bromide or tosylate salt
# Chain of M3 muscarinic acetylcholine receptor (P20309 whole entry): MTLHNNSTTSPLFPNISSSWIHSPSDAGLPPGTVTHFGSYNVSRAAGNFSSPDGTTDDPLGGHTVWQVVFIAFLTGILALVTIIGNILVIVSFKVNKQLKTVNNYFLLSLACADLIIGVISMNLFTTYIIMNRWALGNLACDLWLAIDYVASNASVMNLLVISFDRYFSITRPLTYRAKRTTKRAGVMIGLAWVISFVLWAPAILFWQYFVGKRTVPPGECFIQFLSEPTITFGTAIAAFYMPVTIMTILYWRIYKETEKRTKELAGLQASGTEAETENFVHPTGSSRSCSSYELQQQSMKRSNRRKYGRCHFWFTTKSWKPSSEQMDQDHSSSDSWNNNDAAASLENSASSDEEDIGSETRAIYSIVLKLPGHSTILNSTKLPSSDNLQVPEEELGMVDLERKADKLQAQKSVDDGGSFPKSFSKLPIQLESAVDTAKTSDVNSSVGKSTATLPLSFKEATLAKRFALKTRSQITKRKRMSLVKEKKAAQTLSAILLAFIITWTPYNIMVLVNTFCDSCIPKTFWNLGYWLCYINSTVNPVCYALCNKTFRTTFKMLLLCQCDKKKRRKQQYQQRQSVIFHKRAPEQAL
# From the text: (§1) Such dose dependency is consistent with glycopyrrolate's anti-muscarinic activity. Accordingly, glycopyrrolate tosylate may also be used to treat hyperhidrosis in patients such as by administering a topical containing glycopyrrolate tosylate. By topical, what is meant is a material or formulation comprising or containing glycopyrrolate tosylate which may be used to deliver glycopyrrolate tosylate, including a pharmaceutically effective amount of glycopyrrolate tosylate, to a patient. In many embodiments, the glycopyrrolate tosylate is threo glycopyrrolate tosylate. Examples of a topical include, but are not limited to, solutions, ointments, gels, lotions, powders, sprays, creams, cream bases, patches, pastes, washes, dressings, masks, gauzes, bandages, swabs, brushes, or pads. The application of the topical may be controlled by controlling the dose amount or the rate of release. The dose may be controlled by dissolving or dispensing threo glycopyrrolate tosylate, for example, in the appropriate medium. These and other dose controlling formulations may be used to deliver controlled doses such as specific unit doses, metered doses, or multiple doses from the topical.
# hyperhidrosis = conditions: topically applied; compared with aluminum chloride; cited from earlier work
# [4] = tested on: patients suffering from hyperhidrosis; assay: study in patients suffering from hyperhidrosis treated with 2% and 4% glycopyrrolate formulations; format: in vivo
# From the text: as §1, with “By” for “Such dose dependency is consistent with glycopyrrolate's anti-muscarinic activity. Accordingly, glycopyrrolate tosylate may also be used to treat hyperhidrosis in patients such as by administering a topical containing glycopyrrolate tosylate. By”
Compound,hygroscopicity [1],onset of the glass transition temperature [2] [°C],binding affinity for the M3 muscarinic acetylcholine receptor [3],effectiveness (hyperhidrosis),efficacy responses ([4]; 2% and 4% glycopyrrolate formulations),axillary sweating ([4]; formulations containing 2% and 4% glycopyrrolate based on a glycopyrrolate bromide preparation)
C[N+]1(C)CCC(OC(=O)C(O)(c2ccccc2)C2CCCC2)C1.Cc1ccc(S(=O)(=O)[O-])cc1.O (stereo not drawn) [amorphous glycopyrrolate tosylate],extremely hygroscopic which deliquesced readily,11.6,–,–,–,–
"C[N+]1(C)CCC(OC(=O)C(O)(c2ccccc2)C2CCCC2)C1 (stereo not drawn) [glycopyrrolate bromide, glycopyrronium bromide]",–,–,equivalent binding affinity,increased effectiveness,dose dependent trend,reduced
